pIC50: −log10 of the molar value. One block for each compound: values may come before it.
Key:
Rhizopus oryzae IHEM5223 = test: Antifungal activity in vitro (resazurin susceptibility screen), Inf. J; type: cell-based; settings: Rhizopus arrhizus, 37 °C, 24 hours, resa time 6 hours
In short: (§1)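 Serial dilutions were tested up to 64 μM in RPMI-1640 with L-glutamine and 2% glucose, MOPS-buffered at pH 7.0, against an inoculum of 10^3 cfu per well. Incubation lasted from 24 h at 37° C. for yeasts to a week or more at 27° C. for dermatophytes. Growth was then read fluorimetrically after resazurin (ex 550/em 590 nm).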

[1] = tested on: Mucor circinelloides IHEM21105; test: Antifungal activity in vitro (resazurin susceptibility screen), Inf. L; type: cell-based; settings: 27 °C, 48 hours, resa time 17 hours
In short: as §1

[2] = tested on: Rhizomucor miehei IHEM13391; test: Antifungal activity in vitro (resazurin susceptibility screen), Inf. K; type: cell-based; settings: Rhizomucor miehei, IHEM13391, Rhizomucor miehei IHEM13391; 37 °C, 48 hours, resa time 17 hours
In short: as §1

Microsporum canis B68128 = test: Antifungal activity in vitro (resazurin susceptibility screen), Inf. B; type: cell-based; settings: Microsporum canis, B68128, Microsporum canis B68128; 27 °C, 9 days, resa time 24 hours
In short: as §1

[3] = tested on: Trichophyton rubrum B68183; test: Antifungal activity in vitro (resazurin susceptibility screen), Inf. C; type: cell-based; settings: Trichophyton rubrum, B68183, Trichophyton rubrum B68183; 27 °C, 7 days, resa time 24 hours
In short: as §1

[4] = tested on: Scedosporium prolificans IHEM21157; test: Antifungal activity in vitro (resazurin susceptibility screen), Inf. I; type: cell-based; settings: Lomentospora prolificans, 37 °C, 48 hours, resa time 17 hours
In short: as §1

[5] = tested on: Sporothrix schenkii B62482; test: Antifungal activity in vitro (resazurin susceptibility screen), Inf. A; type: cell-based; settings: Sporothrix, B62482, Sporothrix schenkii B62482; 27 °C, 4 days, resa time 24 hours
In short: as §1

[6] = tested on: Candida parapsilosis B66126; test: Antifungal activity in vitro (resazurin susceptibility screen), Inf. D; type: cell-based; settings: Lodderomyces parapsilosis, B66126, Candida parapsilosis B66126; 37 °C, 24 hours, resa time 4 hours
In short: as §1

[7] = tested on: Trichophyton mentagrophytes B70554; test: Antifungal activity in vitro (resazurin susceptibility screen), Inf. G; type: cell-based; settings: Trichophyton mentagrophytes, B70554, Trichophyton mentagrophytes B70554; 27 °C, 7 days, resa time 24 hours
In short: as §1

[8] = tested on: Cryptococcus neoformans B66663; test: Antifungal activity in vitro (resazurin susceptibility screen), Inf. F; type: cell-based; settings: Cryptococcus neoformans, B66663, Cryptococcus neoformans B66663; 37 °C, 24 hours, resa time 4 hours
In short: as §1

[9] = tested on: Scedosporium apiospermum IHEM3817; test: Antifungal activity in vitro (resazurin susceptibility screen), Inf. H; type: cell-based; settings: Scedosporium apiospermum, IHEM3817, Scedosporium apiospermum IHEM3817; 37 °C, 48 hours, resa time 17 hours
In short: as §1

[10] = tested on: Aspergillus fumigatus B42928; test: Antifungal activity in vitro (resazurin susceptibility screen), Inf. E; type: cell-based; settings: Aspergillus fumigatus, B42928, Aspergillus fumigatus B42928; 27 °C, 48 hours, resa time 17 hours
In short: as §1

[11] = tested on: Microsporum canis (strain B68128); test: Test D.4.1: activity against M. canis in guinea-pigs after oral treatment for 7 consecutive days; type: in vivo; design: key to semi-quantitative lesion score (mean): lesion score 0–3.5 by severity and size of lesion
Protocol: (§2) The animals used in the tests described below were female Guinea pigs (Duncan-Hartley, Charles River, 200 g). These animals were kept in groups of 2 or 3 in cages of 56×33×20 cm^3. Food pellets (Carfil Quality) and water were available ad libitum in addition to a small daily amount of hay. Standard husbandry conditions were adopted: room temperature: 22° C., humidity level: 60% and a day-night cycle of 12 h.
(§3) For the preparation of inoculums, Microsporum canis (strain B68128) was grown on Sabouraud Dextrose Agar (SDA) plates for at least one week (7-10 days) before infection (27° C.). On the day of infection, spores were harvested by adding 4-5 ml sterile water on the plate and suspending the infectious material with a bend Pasteur pipette. From the recollected fluid, 10 μl was added to a KOVA counting chamber for determination of the number of spores in 1 square (average of several squares). If needed, additional dilutions (10× or 100×) were prepared. The average number of spores in one square×dilution×90.000=cfu/ml. An inoculum of 1×10^7 cfu/ml was prepared in a honey-water mixture (50%-50%).
(§4) In the tests described below, semi-quantitative lesion scores were given based on different clinical parameters. Scores between 0 and 3.5 were assigned based on the severity and size of the lesion. The criteria are listed in detail in Table 6.
The dorsum of the guinea pigs was shaved and further depilated for 3 minutes with Veet® creme before scarification with a steel brush. An inoculum of 10^6 cfu in 150 μl (75 mQ+75 μl honey) was applied to the wound using a micropipette with disposable tips. The animal was kept immobilized until the inoculum had completely dried. […]
vehicle: methocel 0.5%, Tween 80® (polysorbate 80), demineralised water reference compound: itraconazole at 6.25 mg/ml test compounds: prepared at 25 mg/ml, subsequently further diluted
Oral treatment (gavage 0.16 ml/100 g once daily) was started about 2 hours before infection and continued once daily for 7 consecutive days. The animals were weighed after 3 days of treatment to adjust for the dose.
Developments of lesions were evaluated following the semi-quantitative lesion scoring system (see Table 6) on days 3, 5, 7, 10, 12, 14, 17 and 20. The results are show in Table 7 (“DPI” means days post infection). Reported values in Table 7 are mean values.

[12] = tested on: Microsporum canis (strain B68128); test: Analogous protocol: comparison compounds (G10, G11) against M. canis in guinea pigs after oral treatment; type: in vivo; design: key to semi-quantitative lesion score (mean): lesion score 0–3.5 by severity and size of lesion; settings: oral 50 mg/kg once daily for 7 days
Protocol: as §2, §3, §4
For the sake of comparison, 2 compounds not having the 1,1-difluoroethyl moiety in the R^5 or R^6 position, were tested in an analogous protocol:
The dorsum of the guinea pigs was shaved and further depilated for 7 minutes with Veet® creme before scarification with a steel brush. An inoculum of 10^6 cfu in 200 μl (100 μl mQ+100 μl honey) was applied to the wound using a micropipette with disposable tips. The animal was kept immobilized until the inoculum had completely dried.
Vehicle: methocel F4M Premium EP, Tween 80® (polysorbate 80), demineralised water.
Test compounds: prepared at 30 mg/ml, subsequently further diluted until 6 mg/ml.
Oral treatment (gavage 0.40 ml/guinea pig once daily) was started about 2 hours before infection and continued once daily for 7 consecutive days.
Developments of lesions were evaluated following the semi-quantitative lesion scoring system (see Table 6) on days 3, 5, 7, 10, 12, 14, 18 and 21. Reported values in Table 8 are mean values.

pIC50 (Rhizopus oryzae IHEM5223): < 4.19
pIC50 [1]: < 4.19
pIC50 [2]: 4.34
pIC50 (Microsporum canis B68128): 6.28
pIC50 [3]: 6.43
pIC50 [4]: 5.88
pIC50 [5]: 4.36
pIC50 [6]: 5.52
pIC50 [7]: 6.22
melting point: 106.9 to 109.7 °C
pIC50 [8]: 4.43
pIC50 [9]: 5.76
pIC50 [10]: 5.70
SMILES: CC(F)(F)c1cccc(C2=NCc3c(Cl)cccc3-n3cccc32)c1 [Compound 14, 7-chloro-4-[3-(1,1-difluoroethyl)phenyl]-6H-pyrrolo[1,2-a][1,4]benzodiazepine]
semi-quantitative lesion score (mean) ([11]; oral 10 mg/kg once daily for 7 days, 3 DPI): 0.33
semi-quantitative lesion score (mean) ([11]; oral 10 mg/kg once daily for 7 days, 5 DPI): 1.17
semi-quantitative lesion score (mean) ([11]; oral 10 mg/kg once daily for 7 days, 7 DPI): 2.00
semi-quantitative lesion score (mean) ([11]; oral 10 mg/kg once daily for 7 days, 10 DPI): 2.17
semi-quantitative lesion score (mean) ([11]; oral 10 mg/kg once daily for 7 days, 12 DPI): 2.33
semi-quantitative lesion score (mean) ([11]; oral 10 mg/kg once daily for 7 days, 14 DPI): 2.17
semi-quantitative lesion score (mean) ([11]; oral 10 mg/kg once daily for 7 days, 17 DPI): 1.67
semi-quantitative lesion score (mean) ([11]; oral 10 mg/kg once daily for 7 days, 20 DPI): 1.17
semi-quantitative lesion score (mean) ([11]; oral 20 mg/kg once daily for 7 days, 3 DPI): 0
semi-quantitative lesion score (mean) ([11]; oral 20 mg/kg once daily for 7 days, 5 DPI): 0.33
semi-quantitative lesion score (mean) ([11]; oral 20 mg/kg once daily for 7 days, 7 DPI): 0.83
semi-quantitative lesion score (mean) ([11]; oral 20 mg/kg once daily for 7 days, 10 DPI): 1.67
semi-quantitative lesion score (mean) ([11]; oral 20 mg/kg once daily for 7 days, 12 DPI): 2.00
semi-quantitative lesion score (mean) ([11]; oral 20 mg/kg once daily for 7 days, 14 DPI): 1.67
semi-quantitative lesion score (mean) ([11]; oral 20 mg/kg once daily for 7 days, 17 DPI): 1.50
semi-quantitative lesion score (mean) ([11]; oral 20 mg/kg once daily for 7 days, 20 DPI): 0.67
activity compared with the terbinafine group (G2, 10 mg/kg) ([11]; oral 40 mg/kg once daily for 7 days): comparable to G2
semi-quantitative lesion score (mean) ([11]; oral 40 mg/kg once daily for 7 days, 3 DPI): 0
semi-quantitative lesion score (mean) ([11]; oral 40 mg/kg once daily for 7 days, 5 DPI): 0.17
semi-quantitative lesion score (mean) ([11]; oral 40 mg/kg once daily for 7 days, 7 DPI): 0.67
semi-quantitative lesion score (mean) ([11]; oral 40 mg/kg once daily for 7 days, 10 DPI): 1.17
semi-quantitative lesion score (mean) ([11]; oral 40 mg/kg once daily for 7 days, 12 DPI): 0.83
semi-quantitative lesion score (mean) ([11]; oral 40 mg/kg once daily for 7 days, 14 DPI): 0.50
semi-quantitative lesion score (mean) ([11]; oral 40 mg/kg once daily for 7 days, 17 DPI): 0.17
semi-quantitative lesion score (mean) ([11]; oral 40 mg/kg once daily for 7 days, 20 DPI): 0.17

SMILES: CCc1ccc(C2=NCc3c(Cl)cccc3-n3cccc32)cc1 [Compound G11]
activity against M. canis (in words) [12]: partial activity
activity compared with present compounds 14 and 4 (G7 and G4, both at 40 mg/kg) [12]: less active
semi-quantitative lesion score (mean) ([12]; 3 DPI): 0
semi-quantitative lesion score (mean) ([12]; 5 DPI): 0
semi-quantitative lesion score (mean) ([12]; 7 DPI): 0.5
semi-quantitative lesion score (mean) ([12]; 10 DPI): 0.5
semi-quantitative lesion score (mean) ([12]; 12 DPI): 0.5
semi-quantitative lesion score (mean) ([12]; 14 DPI): 1
semi-quantitative lesion score (mean) ([12]; 18 DPI): 0.5
semi-quantitative lesion score (mean) ([12]; 21 DPI): 0.5
